Measured values taken from ChEMBL document CHEMBL4346683 (Eur J Med Chem, 2019).
Values after ≈ are worked out from the molar mass of the structure shown.

Tested on: Mycobacterium tuberculosis
Assay: Antibacterial activity against multidrug resistant Mycobacterium tuberculosis
Assay type: functional

## CCCCCCCCCCS(=O)(=O)CC(N)=O
  MIC: 0.75 to 1.5 µg/mL (≈ 2.85 to 5.69 µM)
